Experimental data as given in paper PMC11062894, “Protein-based bandpass filters for controlling cellular signaling with chemical inputs” (Nature Chemical Biology, 2023).
Several values for one entry are separate records, joined by “and”; a condition that tells them apart may be missing. Equal values may be shown once.

Experiments:
[1] = target: GEMS with the dual-drug-controlled (A-1155463, venetoclax) switch (Bcl2 and BclXL–LD3) in HEK293T cells (Homo sapiens, UniProt P10415); experiment: GEMS SEAP reporter assay, dual-drug-controlled (A-1155463, venetoclax) switch; type: cell-based; details: for SEAP (U/L): Figure 2c, OFF-phase
Chain of GEMS with the dual-drug-controlled (A-1155463, venetoclax) switch (Bcl2 and BclXL–LD3) in HEK293T cells (Q07817 whole entry): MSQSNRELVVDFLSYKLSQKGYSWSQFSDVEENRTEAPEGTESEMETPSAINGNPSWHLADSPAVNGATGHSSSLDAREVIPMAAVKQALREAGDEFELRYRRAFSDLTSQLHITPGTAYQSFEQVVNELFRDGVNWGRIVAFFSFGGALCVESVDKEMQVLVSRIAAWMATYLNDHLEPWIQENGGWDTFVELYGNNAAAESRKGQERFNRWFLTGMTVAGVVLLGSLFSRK
Chain of GEMS with the dual-drug-controlled (A-1155463, venetoclax) switch (Bcl2 and BclXL–LD3) in HEK293T cells (P10415 whole entry): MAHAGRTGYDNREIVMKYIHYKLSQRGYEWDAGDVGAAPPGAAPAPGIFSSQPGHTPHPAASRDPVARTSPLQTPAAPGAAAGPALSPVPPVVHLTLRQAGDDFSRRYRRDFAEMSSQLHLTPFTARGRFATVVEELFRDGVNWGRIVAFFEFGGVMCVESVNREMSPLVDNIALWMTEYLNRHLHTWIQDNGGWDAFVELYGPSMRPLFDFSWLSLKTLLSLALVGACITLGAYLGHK
Text: In the first step, we sought to construct a dual-drug-controlled switch to test whether the ON and OFF switching processes can be combined in our receptor architecture. We used Bcl2 and BclXL as the orthogonal drug receptors, which interact with the LD3 protein and respond to their own specific inhibitors. In such a setting, the dual-drug-controlled switch will turn ON in response to one drug and OFF in response to the other, thus mimicking bandpass filtering behavior (Supplementary Fig. 1d). […] To test the switch behavior, we employed the generalizable extracellular molecule sensor (GEMS) platform, which senses extracellular molecules and thus regulates cell surface signaling pathways (Fig. 2a). This receptor platform is based on a mutated EpoR extracellular and transmembrane domain fused to an IL-6RB intracellular domain. Dimerization of EpoR extracellular domains is controlled by N-terminally fused inducible dimerization domains, which drive IL-6RB activation and STAT3 signaling. The Bcl2 and BclXL–LD3 complexes were fused to the extracellular EpoR domains. […] The dimerization of Bcl2 and LD3 causes EpoR extracellular domain dimerization and triggers JAK/STAT3 signaling. Active STAT3 drives the expression of a reporter protein (secreted alkaline phosphatase (SEAP)) controlled by a STAT3-dependent promoter.
(§1) HEK293T cells were seeded in a 96-well plate 24 h before transfection. The transfection mix in each well consisted of 3 ng of constitutive human CMV promoter driven mammalian STAT3 expression vector (PhCMV-STAT3-pA), 30 ng of STAT3-induced reporter expression (OStat3-PhCMVmin-SEAP-pA) and 50 ng of expression vectors for each GEMS receptor chain (PSV40-IgK-(drughigh receptor)-EpoRm-IL-6RBm-pA and PSV40-IgK-(druglow receptor-GGGGSX3-LD3)-EpoRm-IL-6RBm-pA). For the specific drughigh receptor and druglow receptor used in the different cellular assays, they are indicated as wild type or with mutations. Then, plasmid DNA was mixed with 50 μl opti-MEM (Thermo Fisher) and 600 ng of polyethyleneimine (Polysciences, catalog no. 24765-1). For drug treatment experiments, drugs were added 12 h post-transfection and incubated with cells for 24 h before the SEAP reporter detection assay.
(§2) SEAP activity (U l^−1) in cell culture supernatants was quantified by kinetic measurements at 405 nm (1 minute per measurement for 30 cycles) of absorbance increase due to phosphatase-mediated hydrolysis of para-nitrophenyl phosphate (pNPP).
Binding affinities of SPR drug competition assays were calculated using three-parameter nonlinear regression in GraphPad Prism (v.8.3.0). Representative data of cell assays are presented as individual values and mean values (bars). n = 3 refers to biological replicates. All IC50 or EC50 values of cell assays reported were calculated using four-parameter nonlinear regression ± s.d. Bandpass features of cutoff concentrations and Bandwidth90% were estimated based on the curve fitted using bell-shaped curve nonlinear regression in GraphPad Prism (v.8.3.0).

[2] = target: BclXL–LD3 interaction (Homo sapiens, UniProt Q07817); experiment: SPR drug competition assay, BclXL–LD3; type: binding; details: for Normalization of Response units / Response units: BclXL, Supp Fig 2d
Chain of BclXL–LD3 interaction (Q07817 1-209 limits assumed): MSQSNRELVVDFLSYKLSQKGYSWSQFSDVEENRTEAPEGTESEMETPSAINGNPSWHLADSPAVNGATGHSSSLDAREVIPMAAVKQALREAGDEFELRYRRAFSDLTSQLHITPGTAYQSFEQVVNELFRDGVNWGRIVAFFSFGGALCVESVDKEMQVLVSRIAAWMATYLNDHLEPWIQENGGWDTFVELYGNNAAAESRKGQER

[3] = test system: Bcl2; details: cited from earlier work
[4] = target: GEMS with the dual-drug-controlled (venetoclax, A-1155463) switch (BclXL and Bcl2–LD3) in HEK293T cells (Homo sapiens, UniProt P10415); experiment: GEMS SEAP reporter assay, dual-drug-controlled (venetoclax, A-1155463) switch; type: cell-based
Chain of GEMS with the dual-drug-controlled (venetoclax, A-1155463) switch (BclXL and Bcl2–LD3) in HEK293T cells (P10415 whole entry): as the sequence (P10415 whole entry) above
Chain of GEMS with the dual-drug-controlled (venetoclax, A-1155463) switch (BclXL and Bcl2–LD3) in HEK293T cells (Q07817 whole entry, further chain): as the sequence (Q07817 whole entry) above
Description: as §1, §2
(§3) Binding affinities of SPR drug competition assays were calculated using three-parameter nonlinear regression in GraphPad Prism (v.8.3.0). Representative data of cell assays are presented as individual values and mean values (bars). n = 3 refers to biological replicates. All IC50 or EC50 values of cell assays reported were calculated using four-parameter nonlinear regression ± s.d. Bandpass features of cutoff concentrations and Bandwidth90% were estimated based on the curve fitted using bell-shaped curve nonlinear regression in GraphPad Prism (v.8.3.0). […]

[5] = target: Bcl2–LD3 interaction (Homo sapiens, UniProt P10415); experiment: SPR drug competition assay, Bcl2–LD3; type: binding; details: Bcl2, Supp Fig 2d
Chain of Bcl2–LD3 interaction (P10415 1-207 limits assumed): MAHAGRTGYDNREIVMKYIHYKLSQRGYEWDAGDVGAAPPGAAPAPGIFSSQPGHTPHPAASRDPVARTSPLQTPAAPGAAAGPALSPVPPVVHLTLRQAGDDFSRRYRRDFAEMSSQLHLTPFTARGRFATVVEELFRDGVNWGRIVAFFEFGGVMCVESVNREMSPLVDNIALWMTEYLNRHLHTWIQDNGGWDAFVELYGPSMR
Description: Drug IC50 values for disrupting heterodimers were measured on a Biacore 8K device. A 5 µM portion of analyte was mixed with 10 µM of BclXL or Bcl2 inhibitors according to the analyte. The mixtures of analyte and drug were injected onto the LD3 immobilized channel.
as §3
This assay is designed to test if the drug of interest can specifically disrupt the
interaction between LD3 and BclXL/Bcl2. The drug-receptors (Bcl2, BclXL) are immobilized on the
different channels of the sensor chip, then the binding sites are saturated with LD3. […]

CC1(C)CCC(CN2CCN(c3ccc(C(=O)NS(=O)(=O)c4ccc(NCC5CCOCC5)c([N+](=O)[O-])c4)c(Oc4cnc5[nH]ccc5c4)c3)CC2)=C(c2ccc(Cl)cc2)C1 [Venetoclax]
SEAP (U/L) ([1]; Independent repeat, Venetoclax 0.001 nM): 294.62 U/L and 313.4 U/L and 319.588 U/L
SEAP (U/L) ([1]; Independent repeat, Venetoclax 0.01 nM): 267.156 U/L and 307.848 U/L and 300.966 U/L
SEAP (U/L) ([1]; Independent repeat, Venetoclax 0.1 nM): 225.991 U/L and 258.444 U/L and 342.296 U/L
SEAP (U/L) ([1]; Independent repeat, Venetoclax 1 nM): 259.474 U/L and 200.825 U/L and 300.367 U/L
SEAP (U/L) ([1]; Independent repeat, Venetoclax 10 nM): 304.021 U/L and 256.34 U/L and 345.499 U/L
SEAP (U/L) ([1]; Independent repeat, Venetoclax 31.6 nM): 220.194 U/L and 208.431 U/L and 268.11 U/L
SEAP (U/L) ([1]; Independent repeat, Venetoclax 100 nM): 193.21 U/L and 194.937 U/L and 240.35 U/L
SEAP (U/L) ([1]; Independent repeat, Venetoclax 316 nM): 87.2098 U/L and 106.113 U/L and 133.634 U/L
SEAP (U/L) ([1]; Independent repeat, Venetoclax 1000 nM): 44.9721 U/L and 57.2365 U/L and 51.9722 U/L
SEAP (U/L) ([1]; Representative, Venetoclax 0.001 nM): 75.3746 U/L and 89.0712 U/L and 99.0049 U/L
SEAP (U/L) ([1]; Representative, Venetoclax 0.01 nM): 85.1657 U/L and 70.1122 U/L and 89.4923 U/L
SEAP (U/L) ([1]; Representative, Venetoclax 0.1 nM): 81.9771 U/L and 80.9297 U/L and 78.2538 U/L
SEAP (U/L) ([1]; Representative, Venetoclax 1 nM): 69.1909 U/L and 65.9454 U/L and 68.5076 U/L
SEAP (U/L) ([1]; Representative, Venetoclax 10 nM): 45.3899 U/L and 45.448 U/L and 63.5072 U/L
SEAP (U/L) ([1]; Representative, Venetoclax 31.6 nM): 23.8212 U/L and 28.0484 U/L and 21.6764 U/L
SEAP (U/L) ([1]; Representative, Venetoclax 100 nM): 11.359 U/L and 10.3713 U/L and 12.1034 U/L
SEAP (U/L) ([1]; Representative, Venetoclax 316 nM): 9.4797 U/L and 7.067 U/L and 8.943 U/L
SEAP (U/L) ([1]; Representative, Venetoclax 1000 nM): 8.365 U/L and 6.996 U/L and 8.215 U/L
shut-down of reporter gene expression ([1]; adding 1 µM venetoclax to 100 nM A-1155463): effectively shut down
Normalization of Response units ([2]; V 0.01): 100.685
Response units ([2]; V 0.01): 94.0092
Normalization of Response units ([2]; V 0.1): 99.7556
Response units ([2]; V 0.1): 93.1418
Normalization of Response units ([2]; V 1): 98.8448
Response units ([2]; V 1): 92.2914
Normalization of Response units ([2]; V 10): 97.5083
Response units ([2]; V 10): 91.0435
Normalization of Response units ([2]; V 100): 89.9423
Response units ([2]; V 100): 83.9791
Normalization of Response units ([2]; V 1000): 81.529
Response units ([2]; V 1000): 76.1236
Normalization of Response units ([2]; V 10000): 74.8321
Response units ([2]; V 10000): 69.8707
effect on the BclXL–LD3 interaction ([2]; SPR drug competition): not affecting
affinity for Bcl2 stronger than for BclXL [3]: 500 fold
increase in the ON phase [4]: close to tenfold
Normalization of Response units ([5]; V 0.01): 100.745
Response units ([5]; V 0.01): 7.1398
Normalization of Response units ([5]; V 0.1): 100.312
Response units ([5]; V 0.1): 7.1091
Normalization of Response units ([5]; V 1): 96.9409
Response units ([5]; V 1): 6.8702
Normalization of Response units ([5]; V 10): 93.6659
Response units ([5]; V 10): 6.6381
Normalization of Response units ([5]; V 100): 74.5943
Response units ([5]; V 100): 5.2865
Normalization of Response units ([5]; V 1000): 57.566
Response units ([5]; V 1000): 4.0797
Normalization of Response units ([5]; V 10000): 38.8006
Response units ([5]; V 10000): 2.7498
